Where “and” joins values, the source holds several entries; their conditions need not be identical. Equal entries are not always repeated.
Columns and labels:
[1] = target: ALK R1275Q (Homo sapiens, UniProt Q9UM73, R1275Q); assay: ALK enzymatic IC50, R1275Q; format: biochemical
Text: (§1) Supplement 12916_2022_2646_MOESM1_ESM.docx, table 1 | column: ALK Enzymatic IC50 (nM)

[2] = system: xenograft models of ALK-positive NSCLC; details: crizotinib-sensitive and crizotinib-resistant tumors; cited from earlier work
[3] = target: ALK WT (Homo sapiens, UniProt Q9UM73); assay: ALK enzymatic IC50, WT; format: biochemical
[4] = system: FAK; parameters: method as in PMID 27638856; details: less potent than the inhibition to ALK; cited from earlier work
[5] = system: Pyk2; parameters: method as in PMID 27638856; details: less potent than the inhibition to ALK; cited from earlier work
[6] = target: ALK G1269S (Homo sapiens, UniProt Q9UM73, G1269S); assay: ALK enzymatic IC50, G1269S; format: biochemical
Text: as §1

[7] = system: brain metastasis of ALK-positive NSCLC; assay: Intracranial response in patients with measurable brain metastatic lesions; format: in vivo, human
[8] = target: ALK G1202R (Homo sapiens, UniProt Q9UM73, G1202R); assay: ALK enzymatic IC50, G1202R; format: biochemical
Text: as §1

[9] = system: ALK-positive NSCLC; assay: Phase 1 efficacy assessment (RECIST 1.1, investigator-assessed);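 further: tumours imaged by CT or MRI at baseline, after cycle 1, then every 8 weeks to cycle 29 and every 12 weeks until progression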
[10] = ALK TKI-naïve, 300 mg BID (n=6)
[11] = ALK TKI-naïve, 600 mg QD (n=12)
[12] = All patients, 300 mg BID (n=11)
[13] = Received crizotinib previously, 50 mg QD (n=1)
[14] = Received crizotinib previously, 200 mg QD (n=1)
[15] = Received crizotinib previously, 300 mg BID (n=5)
[16] = Received crizotinib previously, 300 mg QD (n=1)
[17] = Received crizotinib previously, 600 mg QD (n=6)
[18] = Received crizotinib previously, 800 mg QD (n=1)
[19] = waterfall plot, evaluable patients (n=60)

COc1cc(N2CCC(N3CCN(C)CC3)CC2)ccc1Nc1nc2c(c(Nc3ccccc3S(=O)(=O)NC(C)C)n1)CCN2 [Conteltinib]
IC50 [1]: 1.2 nM
anti-tumor activity in xenograft models [2]: marked anti-tumor activity
IC50 [3]: 1.5 nM
FAK inhibition [4]: inhibits
Pyk2 inhibition [5]: inhibits
IC50 [6]: 8.4 nM
Intracranial DCR (95% CI) ([7]; 300 mg BID (n=1)): 100.0% (2.5-100.0)
Intracranial ORR (95% CI) ([7]; 300 mg BID (n=1)): 0.0% (0.0-97.5)
Intracranial DCR (95% CI) ([7]; 450 mg QD (n=2)): 100.0% (15.8-100.0)
Intracranial ORR (95% CI) ([7]; 450 mg QD (n=2)): 50% (1.3-98.7)
Intracranial DCR (95% CI) ([7]; 600 mg QD (n=3)): 66.7% (9.4-99.2)
Intracranial ORR (95% CI) ([7]; 600 mg QD (n=3)): 33.3% (0.8-90.6)
IC50 [8]: 6.3 nM
CR rate ([9]; 39 ALK TKI-naïve patients): 2.6%
PR rate ([9]; 39 ALK TKI-naïve patients): 61.5%
number of patients with objective response ([9]; 39 ALK TKI-naïve patients): 25 patients
patients with tumor regression ([9]; 50/60 patients): 83.3%
DCR (95% CI) ([9]; ALK TKI-naïve, 50 mg QD (n=1)): 100.0% (2.5–100.0)
ORR (95% CI) ([9]; ALK TKI-naïve, 50 mg QD (n=1)): 100.0% (2.5–100.0)
DoR, Median (95% CI) ([9]; ALK TKI-naïve, 100 mg QD (n=6)): 11.1 (5.61–15.0) months
PFS, Median (95% CI) ([9]; ALK TKI-naïve, 100 mg QD (n=6)): 11.3 (2.75–15.9) months
DoR, Median (95% CI) ([9]; ALK TKI-naïve, 200 mg QD (n=2)): 5.51 (NE–NE) months
ORR (95% CI) ([9]; ALK TKI-naïve, 200 mg QD (n=2)): 50.0% (1.3–98.7)
PFS, Median (95% CI) ([9]; ALK TKI-naïve, 200 mg QD (n=2)): 5.89 (3.25–8.54) months
DoR, Median (95% CI) [9, 10]: 10.6 (1.80–10.6) months
PFS, Median (95% CI) [9, 10]: 17.8 (3.05–19.6) months
DCR (95% CI) ([9]; ALK TKI-naïve, 300 mg QD (n=2)): 100.0% (15.8–100.0)
DoR, Median (95% CI) ([9]; ALK TKI-naïve, 300 mg QD (n=2)): 17.4 (9.06–25.8) months
ORR (95% CI) ([9]; ALK TKI-naïve, 300 mg QD (n=2)): 100.0% (15.8–100.0)
PFS, Median (95% CI) ([9]; ALK TKI-naïve, 300 mg QD (n=2)): 19.5 (10.2–28.8) months
DoR, Median (95% CI) ([9]; ALK TKI-naïve, 450 mg QD (n=8)): NE (3.74–NE)
PFS, Median (95% CI) ([9]; ALK TKI-naïve, 450 mg QD (n=8)): NE (4.63–NE)
DoR, Median (95% CI) [9, 11]: 16.5 (1.80–32.8) months
PFS, Median (95% CI) [9, 11]: 19.3 (1.05–32.4) months
DCR (95% CI) ([9]; ALK TKI-naïve, 800 mg QD (n=2)): 100.0% (15.8–100.0)
DoR, Median (95% CI) ([9]; ALK TKI-naïve, 800 mg QD (n=2)): 28.0 (NE–NE) months
ORR (95% CI) ([9]; ALK TKI-naïve, 800 mg QD (n=2)): 50.0% (1.3–98.7)
PFS, Median (95% CI) ([9]; ALK TKI-naïve, 800 mg QD (n=2)): 19.8 (10.3–29.2) months
DoR, Median (95% CI) ([9]; ALK TKI-naïve, Total (n=39)): 15.0 (9.06–25.8) months
PFS, Median (95% CI) ([9]; ALK TKI-naïve, Total (n=39)): 15.9 (9.26–23.3) months
DCR (95% CI) ([9]; All patients, 50 mg QD (n=2)): 50.0% (1.3–98.7)
ORR (95% CI) ([9]; All patients, 50 mg QD (n=2)): 50.0% (1.3–98.7)
PFS, Median (95% CI) ([9]; All patients, 50 mg QD (n=2)): NE (1.21–NE)
DoR, Median (95% CI) ([9]; All patients, 100 mg QD (n=7)): 11.1 (5.61–15.0) months
PFS, Median (95% CI) ([9]; All patients, 100 mg QD (n=7)): 8.57 (0.95–15.9) months
DCR (95% CI) ([9]; All patients, 200 mg QD (n=3)): 33.3% (0.8–90.6)
DoR, Median (95% CI) ([9]; All patients, 200 mg QD (n=3)): 5.51 (NE–NE) months
ORR (95% CI) ([9]; All patients, 200 mg QD (n=3)): 33.3% (0.8–90.6)
PFS, Median (95% CI) ([9]; All patients, 200 mg QD (n=3)): 3.25 (1.34–8.54) months
DoR, Median (95% CI) [9, 12]: 5.58 (1.80–10.6) months
PFS, Median (95% CI) [9, 12]: 7.68 (3.05–17.8) months
DCR (95% CI) ([9]; All patients, 300 mg QD (n=3)): 100.0% (29.2–100.0)
DoR, Median (95% CI) ([9]; All patients, 300 mg QD (n=3)): 17.4 (9.06–25.8) months
ORR (95% CI) ([9]; All patients, 300 mg QD (n=3)): 66.7% (9.4–99.2)
PFS, Median (95% CI) ([9]; All patients, 300 mg QD (n=3)): 10.2 (4.92–28.8) months
DoR, Median (95% CI) ([9]; All patients, 450 mg QD (n=13)): NE (3.74–NE)
PFS, Median (95% CI) ([9]; All patients, 450 mg QD (n=13)): 26.9 (4.63–NE) months
DoR, Median (95% CI) ([9]; All patients, 600 mg QD (n=18)): 15.6 (1.80–22.2) months
PFS, Median (95% CI) ([9]; All patients, 600 mg QD (n=18)): 13.2 (4.69–23.0) months
DCR (95% CI) ([9]; All patients, 800 mg QD (n=3)): 100.0% (29.2–100.0)
DoR, Median (95% CI) ([9]; All patients, 800 mg QD (n=3)): 17.3 (6.60–28.0) months
ORR (95% CI) ([9]; All patients, 800 mg QD (n=3)): 66.7% (9.4–99.2)
PFS, Median (95% CI) ([9]; All patients, 800 mg QD (n=3)): 10.3 (7.72–29.2) months
DoR, Median (95% CI) ([9]; All patients, Total (n=60)): 13.3 (6.60–22.2) months
PFS, Median (95% CI) ([9]; All patients, Total (n=60)): 9.26 (6.73–15.7) months
patients achieving CR ([9]; FAS, 60 patients): 1.7%
patients achieving PR ([9]; FAS, 60 patients): 51.7%
patients attaining SD ([9]; FAS, 60 patients): 26.7%
patients experiencing PD ([9]; FAS, 60 patients): 16.7%
DCR (95% CI) [9, 13]: 0.0% (0.0–97.5)
ORR (95% CI) [9, 13]: 0.0% (0.0–97.5)
PFS, Median (95% CI) [9, 13]: 1.21 (NE–NE) months
PFS, Median (95% CI) ([9]; Received crizotinib previously, 100 mg QD (n=1)): 0.95 months and 0.95 (NE–NE) months
DCR (95% CI) [9, 14]: 0.0% (0.0–97.5)
ORR (95% CI) [9, 14]: 0.0% (0.0–97.5)
PFS, Median (95% CI) [9, 14]: 1.34 (NE–NE) months
DoR, Median (95% CI) [9, 15]: 5.58 (4.63–7.39) months
PFS, Median (95% CI) [9, 15]: 7.09 (4.73–8.54) months
DCR (95% CI) [9, 16]: 100.0% (54.1–100.0)
ORR (95% CI) [9, 16]: 0.0% (0.0–97.5)
PFS, Median (95% CI) [9, 16]: 4.92 (NE–NE) months
PFS, Median (95% CI) ([9]; Received crizotinib previously, 450 mg QD (n=5)): 8.34 (3.02–26.9) months
DoR, Median (95% CI) [9, 17]: 13.3 (3.77–16.5) months
PFS, Median (95% CI) [9, 17]: 9.37 (4.69–17.7) months
DCR (95% CI) [9, 18]: 100.0% (2.5–100.0)
DoR, Median (95% CI) [9, 18]: 6.60 (NE–NE) months
ORR (95% CI) [9, 18]: 100.0% (2.5–100.0)
PFS, Median (95% CI) [9, 18]: 7.72 (NE–NE) months
tumor size changes relative to baseline ([9]; across all patients (n=60)): −100 to 74%
number of patients with CR [9, 19]: One
number of patients with PD [9, 19]: 10 patients
number of patients with PR [9, 19]: 31 patients

Source: publication PMC9694544, “Conteltinib (CT-707) in patients with advanced ALK-positive non-small cell lung cancer: a multicenter, open-label, first-in-human phase 1 study” (BMC Medicine, 2022)
